Test results from US9643977B2, “Necroptosis inhibitors and methods of use therefor” (President and Fellows of Harvard College, priority 2011, dated 2017).
Where a SMILES comes first, the peptide text is derived from it. The star is where a group is joined. Cbz = O=C(OCc1ccccc1)*; CH2F = FC*

What was measured:
[1] = tested on: TNFα production in BV2 cells; test: TNFα mRNA by quantitative PCR, BV2 cells treated with Aβ42; type: cell-based; conditions: 10 μM, 30 minutes before Aβ42 200 nM, FIG. 10A
Experimental: (§1) The levels of TNFα mRNA were measured by quantitative PCR. B) Microglia primary cultures were incubated for 30 minutes with or without 10 μM Nec-1 prior to being treated with Aβ42 (200 nM). TNFα secretion was measured by ELISA. The data correspond to the mean±SD (N=3). C) Cell survival of microglia primary cultures treated with Aβ42 (200 nM) for indicated times with and without Nec1 was measured by CellTiter-Glo® assay. Error bars represent the mean of two different experiments.
(§2) The role played by RIP1 in the induction of TNFα production by amyloid-β in microglial cells was investigated.

[2] = tested on: TNFα secretion by splenic macrophages; test: TNFα ELISA, splenic macrophages stimulated by CD154 and IFNγ; type: cell-based, C57BL/6 mouse; conditions: 10 μM, pretreated 1 hour, then 24 hours 1 μg/ml CD154 and 100 U/ml IFNγ, FIG. 6
Experimental: To further explore the role of RIP1 kinase in mediating CD40 signaling, the effect of necrostatins on the production of TNFα by primary macrophages stimulated by CD154 was tested. Splenocytes isolated from a C57BL/6 mouse were cultured for 10 days in RPMI media with 10% FBS and 50 μM 2-mercaptoethanol. The attached cells were harvested as splenic macrophages. The macrophages were pretreated for 1 hour with 10 μ[…] Nec-1, 10 μM Nec-21, 10 μM Nec-29, or 1 μM Nec-12, then treated for 24 hours with 1 μg/ml recombinant CD154 (CD40L, R&D Systems) and/or 100 U/ml IFNγ as. TNFα secretion in the cell culture supernatant was analyzed by ELISA assay. As depicted in FIG. 6, the production of TNFα in splenic macrophages stimulated by CD154 in the presence of IFNγ was inhibited by Nec-1 as well as by the three other necrostatins tested, Nec-12, Nec-21 and Nec-29. These experiments indicate that RIP1 is involved in mediating TNFα production downstream of CD40 activation.

[3] = tested on: TNFα production in L929 cells; test: TNFα ELISA on cell lysates, L929 cells treated with SM-164; type: cell-based
Experimental: (§3) Smac mimetic compounds are IAP antagonists that induce the production of TNFα. Smac mimetic compounds induce the autoubiquitination and degradation of cIAP1. […] This cell death was inhibited by treatment with 10 μM Nec-1, or with 0.2 μg/ml or 1.0 μg/ml of TNFα neutralizing antibody (FIG. 2A).

[4] = tested on: TNFα secretion by BV-2 cells; test: TNFα ELISA, BV-2 cells pretreated with IFNγ and treated with CD40L; type: cell-based; conditions: 100 U/ml IFNγ 20 hours, 0.1 μg/ml CD40L 4 or 8 hours, FIG. 13B
Experimental: (§4) A, L929 cells were treated with 0.2 μg/ml CD40L, 100 U/ml IFNγ, and/or 1 μg/ml TNFα neutralizing antibody and then treated with 10 μM Nec-1 (right bar) or a DMSO control (left bar) for 24 hours. Viability was measure by ATP luminescence assay. B, BV-2 cells were pretreated with 100 U/ml IFNγ for 20 hours, and treated with 0.1 μg/ml CD40L for 4 or 8 hours. TNFα secretion was measured by ELISA.
To confirm the role of RIP1 in CD40L-induced TNFα production, BV-2 cells were pretreated with IFNγ and CD40L to induce TNFα production and then exposed to Nec-1.

L929 cells [5] = test: Cell survival by CellTiter-Glo, L929 cells treated with CD154 and/or IFNγ; type: cell-based; conditions: 10 μM, 32 hrs, CD154 0.1 μg/ml, FIG. 5
Experimental: To test the involvement of CD40 in necroptosis, L929 cells were treated with CD154 (0.1 μg/ml), IFNγ (100 U/ml) and/or TNFα neutralizing antibody (1 μg/ml) alone or in combination and with or without Nec-1 (10 μM) for 32 hrs. Following treatment, cell survival was determined by CellTiter-Glo (Promega). As depicted in FIG. 5, the death of L929 cells induced by either the presence of either CD154 alone or by the presence of both CD154 and IFNγ was inhibited by Nec-1. Thus, RIP1 kinase selectively mediates intracellular signaling downstream of CD40 stimulation

L929 cells [6] = test: Viability by ATP luminescence assay, L929 cells treated with CD40L and IFNγ; type: cell-based; conditions: 10 μM, 24 hours, 0.2 μg/ml CD40L, 100 U/ml IFNγ, FIG. 13A
Experimental: as §4
The role of RIP1 in CD40L induced TNFα production was investigated.

[7] = tested on: microglia primary cultures; test: Cell survival by CellTiter-Glo, microglia primary cultures treated with Aβ42; type: cell-based; conditions: Aβ42 200 nM, FIG. 10C
Experimental: as §1, §2

[8] = tested on: TNFα secretion by microglia primary cultures; test: TNFα ELISA, microglia primary cultures treated with Aβ42; type: cell-based; conditions: 10 μM, 30 minutes before Aβ42 200 nM, FIG. 10B
Experimental: as §1, §2

L929 cells [9] = test: Cell viability by ATP assay, L929 cells treated with Smac mimetic SM-164; type: cell-based
Experimental: as §3

L929 cells [10] = test: Cell viability by ATP assay, L929 cells transfected with Traf2 siRNA; type: cell-based; conditions: 10 μM, 48 hours, FIG. 3A
Experimental: (§5) In the TNFα signaling pathway, cIAP1, the target of Smac mimetic compounds, interacts closely with another protein, Traf2. L929 cells were transfected with Traf2 siRNA, treated with 10 μM Nec-1 or 1.0 μg/ml anti-TNFα antibody for 48 hours and cell viability measured by ATP assay. […] This death was also dependent on TNFα production, as it was inhibited by treatment with a TNFα neutralizing antibody or with knockdown of TNFR1 (FIGS. 3A and 3B). […] One such treatment is lipopolysaccharide (LPS), a component of the bacterial outer membrane. […] However, treatment of such cells with 10 μM Nec-1 has no effect on TNFα production in this case (FIG. 4).

[11] = tested on: TNFα production in J774 cells; test: TNFα ELISA, J774 cells treated with zVAD.fmk (cell lysate and supernatant); type: cell-based, murine; conditions: FIG. 1
Experimental: The role of RIP1 kinase in the regulation of TNFα induction was investigated. zVAD.fmk is a caspase inhibitor that induces TNFα expression in various cell types. Murine macrophage J774 cells were treated with 20 μM zVAD.fmk and 10 μM of necrostatin and RIP1 inhibitor Nec-1 for the various periods of time. Cell lysates were extracted and analyzed by TNFα specific ELISA. As depicted in FIG. 1, treatment with zVAD.fmk induces an upregulation in TNFα protein levels as measured by ELISA in the cell lysate.

[12] = tested on: TNFα production in J774 cells; test: TNFα ELISA, J774 cells treated with LPS; type: cell-based, murine; conditions: 10 μM, J774 cells with 1 μg/ml LPS, cell lysate, FIG. 4
Experimental: as §5

Structure (SMILES): CN1C(=O)C(Cc2c[nH]c3ccccc23)NC1=S (stereo not shown) [Nec-1]
- levels of TNFα (mRNA) after Aβ42 exposure [1]: reduced levels of TNFα
- inhibition of TNFα production stimulated by CD154 in the presence of IFNγ [2]: inhibited
- inhibition of SM-164-induced TNFα production ([3]; co-treatment, FIG. 2B): completely inhibited
- inhibition of CD40L-induced TNFα production [4]: significantly inhibited
- inhibition of cell death induced by CD154 alone (L929 cells [5]): inhibited
- inhibition of cell death induced by both CD154 and IFNγ (L929 cells [5]; IFNγ 100 U/ml): inhibited
- viability of cells cultured in IFNγ and CD40L (L929 cells [6]): largely restored
- effect on survival of microglia primary cells [7]: minor protective effect
- levels of TNFα (secretion) after Aβ42 exposure [8]: reduced levels of TNFα
- inhibition of SM-164-induced cell death (L929 cells [9]; 10 μM, L929 cells with 100 nM SM-164, FIG. 2A): inhibited
- inhibition of cell death induced by loss of Traf2 (L929 cells [10]): completely inhibit
- inhibition of zVAD.fmk-induced production of TNFα ([11]; 10 μM co-treatment with 20 μM zVAD.fmk): almost completely inhibits
- effect on LPS-induced TNFα production [12]: no effect

Structure (SMILES): CN[C@@H](C)C(=O)N[C@H]1CCCC[C@H]2CC[C@@H](C(=O)N[C@@H](c3ccccc3)c3cn(CCCCc4ccc(CCCCn5cc([C@@H](NC(=O)[C@@H]6CC[C@@H]7CCCC[C@H](NC(=O)[C@H](C)NC)C(=O)N76)c6ccccc6)nn5)cc4)nn3)N2C1=O [SM-164, reference compound]
- TNFα production after treatment ([3]; SM-164 treatment, ELISA on cell lysates): induced an increase
- cell death induced by treatment (L929 cells [9]; 100 nM, L929 cells, ATP assay): undergo cell death

Structure (SMILES): COC(=O)C[C@H](NC(=O)[C@H](C)NC(=O)[C@@H](NC(=O)OCc1ccccc1)C(C)C)C(=O)CF [zVAD.fmk, reference compound] (Cbz-Val-Ala-Asp(OMe)-CH2F)
- TNFα protein levels after treatment ([11]; 20 μM zVAD.fmk, ELISA in cell lysate): upregulation
